Assay results published in patent US9839642B2, “Beta-tetrazolyl-propionic acids as metallo-beta-lactamase inhibitors” (priority 2014, dated 2017).

Legend:
[1] = test system: Serratia marcescens expressing IMP-1 (CL5741); assay: Antibiotic potentiation activity: synergistic concentration (MITC95) with imipenem, growth by OD600; type: cell-based; details: 95% inhibition of bacterial growth, strain CL5741
Procedure: (§1) Antibiotic Potentiation Activity: Determination of Synergistic Concentration
(§2) The bacterial strains tested included the clinical strains Escherichia coli expressing NDM-1 (CLB30005, CLB30016), Serratia marcescens expressing IMP-1 (CL5741), and Klebsiella pneumoniae expressing VIM-1 (IHMA599644). Inhibitor activity was measured in the presence and absence of imipenem or ceftazidime in a 384-well microplate.
(§3) The clinical strains CLB30016, CL5741, and IHMA599644 were grown on trypticase soy agar containing 5% sheep's blood. The clinical strain CLB30005 was grown on Mueller Hinton broth agar containing 8 μg/ml imipenem. The bacteria on agar plates were incubated overnight at 35° C. with ambient humidity (achieved from an open pan of water inside the incubator). The following day, individual colonies from each clinical strain were picked and resuspended in 5 ml saline to attain an OD600 of 0.14, 0.11, 0.15 and 0.13, for CLB30005, CLB30016, CL5741 and IHMA599644, respectively. These were further diluted 1:100 into 1.1×CAMHB and used to inoculate the test wells as described below.
(§4) Imipenem in 10 mM 3-(N-morpholino)propanesulfonic acid (MOPS, pH 7) was stored in single use aliquots at −80° C. Test inhibitors were dissolved in DMSO and diluted 1:50 in the assay, resulting in a final concentration range of 200 μM to 0.195 μM. On the day of the assay, 4 μl of antibiotic was added to 45 μl of bacteria followed by 1 μl of test compound and mixed by pipetting and with an orbital shaker. The concentration of antibiotic used in the assay was 1 μg/ml or 4 μg/ml. Microplates were covered and incubated at 35° C. for 22 hours to 24 hours. At the end of the incubation, absorbance was determined using a spectrophotometer. The synergistic concentration of MBLI was determined by identifying the lowest concentration of test compound in the presence of a given concentration of antibiotic that was required to inhibit 95% of the growth of the bacteria.
(§5) Representative compounds of the present invention display a synergistic effect. For example, representative compounds of EXAMPLES 1-456 were determined to restore susceptibility to imipenem at concentrations of 200 μM or less.

[2] = test system: Escherichia coli expressing NDM-1 (CLB30016); assay: as above; type: cell-based; details: 95% inhibition of bacterial growth, strain CLB30016
Procedure: as §1, §2, §3, §4, §5

[3] = test system: Klebsiella pneumoniae expressing VIM-1 (IHMA599644); assay: as above; type: cell-based; details: 95% inhibition of bacterial growth, strain IHMA599644
Procedure: as §1, §2, §3, §4, §5

[4] = target: IMP-1 (Serratia marcescens, UniProt P52699); assay: Enzyme activity: determination of IC50, fluorescence assay with CCF2-FA substrate; type: biochemical; details: enzyme 2 pM, CCF2-FA 1.25 μM, 2 hours at 25° C.; read-out: IMP1 IC50
Chain of IMP-1 (P52699 19-246, looked up, species assumed): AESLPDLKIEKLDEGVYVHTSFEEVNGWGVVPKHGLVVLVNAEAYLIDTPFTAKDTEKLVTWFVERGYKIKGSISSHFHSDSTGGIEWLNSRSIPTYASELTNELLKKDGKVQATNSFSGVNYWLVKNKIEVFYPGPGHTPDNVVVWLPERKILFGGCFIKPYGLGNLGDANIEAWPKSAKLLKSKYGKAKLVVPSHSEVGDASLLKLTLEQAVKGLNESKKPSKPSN
Procedure: (§6) Enzyme Activity: Determination of IC50
(§7) The Class B enzyme activities were measured in the presence of a compound of the EXAMPLES as a test inhibitor in a fluorescence assay against a commercially available substrate consisting of a cephalosporin core linking 7-hydroxycoumarin to fluorescein (CCF2-FA; Life Technologies, Grand Island, N.Y.). The enzyme (NDM-1, IMP-1 or VIM-1) and the substrate were diluted in 100 mM KH2PO4 buffer (pH 7) containing 0.005% Tween-20 and 10 μM ZnSO4. In the assay, the final concentration of enzyme was 1 pM, 2 pM and 30 pM for NDM-1, IMP-1 and VIM-1, respectively, and the final concentration of CCF2-FA was 1.25 μM. The test inhibitor was dissolved in DMSO and diluted 1:50 in the assay, resulting in a final concentration range of 20 μM to 0.00063 μM. In a 384-well microplate, the test inhibitor was incubated with the metallo-β-lactamase enzyme and the substrate for 2 hours at 25° C. Fluorescence at 460 nm following excitation at 405 nm was measured. The IC50 value was determined from semi-logarithmic plots of enzyme inhibition versus inhibitor concentration, with a curve generated using a 4-parameter fit.

[5] = target: NDM-1 (Klebsiella pneumoniae, UniProt C7C422); assay: as above; type: biochemical; details: enzyme 1 pM, CCF2-FA 1.25 μM, 2 hours at 25° C.; read-out: NDM1 IC50
Chain of NDM-1 (C7C422 29-270, looked up, species assumed): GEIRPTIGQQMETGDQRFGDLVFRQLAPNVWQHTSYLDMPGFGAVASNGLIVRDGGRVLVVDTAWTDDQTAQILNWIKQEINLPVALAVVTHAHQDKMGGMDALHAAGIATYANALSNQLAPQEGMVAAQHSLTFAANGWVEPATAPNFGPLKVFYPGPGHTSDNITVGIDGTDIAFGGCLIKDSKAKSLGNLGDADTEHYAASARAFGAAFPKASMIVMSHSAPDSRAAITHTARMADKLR
Procedure: as §6, §7

[6] = target: VIM-1 (Pseudomonas aeruginosa, UniProt A0A0F7KYQ8); assay: as above; type: biochemical; details: enzyme 30 pM, CCF2-FA 1.25 μM, 2 hours at 25° C.; read-out: VIM1 IC50
Procedure: as §6, §7

## CC(C)[C@H](C(=O)O)[C@H](Cc1ccc(-c2cn[nH]c2)cc1)c1nnn[nH]1 [Example 62, (2S,3S)-4-(4-(1H-pyrazol-4-yl)phenyl)-2-isopropyl-3-(1H-tetrazol-5-yl)butanoic acid]
[1]
  IMP1 SM5741 MITC95: 6.2 µM
[2]
  NDM1 EC30016 MITC95: 9.4 µM
[3]
  VIM1 KP599644 MITC95: 18.8 µM
[4]
  IC50: 66 nM
[5]
  IC50: 6.5 nM
[6]
  IC50: 6.9 nM

## O=C(O)[C@@H](C1CCCC1)[C@H](Cc1ccc(-c2cn[nH]c2)cc1)c1nnn[nH]1 [Example 63, (2S,3S)-4-(4-(1H-pyrazol-4-yl)phenyl)-2-cyclopentyl-3-(1H-tetrazol-5-yl)butanoic acid]
[1]
  IMP1 SM5741 MITC95: 2.0 µM
[2]
  NDM1 EC30016 MITC95: 6.2 µM
[3]
  VIM1 KP599644 MITC95: 18.8 µM
[4]
  IC50: 25 nM
[5]
  IC50: 4.5 nM
[6]
  IC50: 1.1 nM

## CC(C)[C@H](C(=O)O)[C@H](Cc1ccc(C2=CCNC2)nc1)c1nnn[nH]1 [Example 64, (2S,3S)-4-(6-(2,5-dihydro-1H-pyrrol-3-yl)pyridin-3-yl)-2-isopropyl-3-(1H-tetrazol-5-yl)butanoic acid]
[1]
  IMP1 SM5741 MITC95: 50 µM
[2]
  NDM1 EC30016 MITC95: 6.2 µM
[3]
  VIM1 KP599644 MITC95: 12.5 µM
[4]
  IC50: 12000 nM
[5]
  IC50: 300 nM
[6]
  IC50: 8.4 nM

## CC(C)[C@H](C(=O)O)[C@H](Cc1ccc(C2=CCNC2)cn1)c1nnn[nH]1 [Example 65, (2S,3S)-4-(5-(2,5-dihydro-1H-pyrrol-3-yl)pyridin-2-yl)-2-isopropyl-3-(1H-tetrazol-5-yl)butanoic acid]
[1]
  IMP1 SM5741 MITC95: 200 µM
[2]
  NDM1 EC30016 MITC95: 3.1 µM
[3]
  VIM1 KP599644 MITC95: 12.5 µM
[4]
  IC50: > 20000 nM
[5]
  IC50: 760 nM
[6]
  IC50: 72 nM

## O=C(O)[C@@H](C1CCCC1)[C@H](Cc1ccc(C2=CCNC2)cn1)c1nnn[nH]1 [Example 66, (2S,3S)-2-cyclopentyl-4-(5-(2,5-dihydro-1H-pyrrol-3-yl)pyridin-2-yl)-3-(1H-tetrazol-5-yl)butanoic acid]
[1]
  IMP1 SM5741 MITC95: 75 µM
[2]
  NDM1 EC30016 MITC95: 4.7 µM
[3]
  VIM1 KP599644 MITC95: 12.5 µM
[4]
  IC50: 6400 nM
[5]
  IC50: 370 nM
[6]
  IC50: 18 nM

## O=C(O)[C@@H](C1CCOC1)[C@H](Cc1ccc(C2=CCNC2)cc1)c1nnn[nH]1 (stereo partly drawn) [Example 67, (2R,3S)-4-(4-(2,5-dihydro-1H-pyrrol-3-yl)phenyl)-2-(tetrahydrofuran-3-yl)-3-(1H-tetrazol-5-yl)butanoic acid]
[1]
  IMP1 SM5741 MITC95: 50 µM
[2]
  NDM1 EC30016 MITC95: 12.5 µM
[3]
  VIM1 KP599644 MITC95: 25 µM
[4]
  IC50: 12000 nM
[5]
  IC50: 890 nM
[6]
  IC50: 25 nM

## Cc1cc(C[C@H](c2nnn[nH]2)[C@@H](C(=O)O)C(C)C)ccc1C1=CCNC1 [Example 68, (2S,3S)-4-(4-(2,5-dihydro-1H-pyrrol-3-yl)-3-methylphenyl)-2-isopropyl-3-(1H-tetrazol-5-yl)butanoic acid]
[1]
  IMP1 SM5741 MITC95: 12.5 µM
[2]
  NDM1 EC30016 MITC95: 4.7 µM
[3]
  VIM1 KP599644 MITC95: 6.2 µM
[4]
  IC50: 1100 nM
[5]
  IC50: 24 nM
[6]
  IC50: 0.79 nM

## CC(C)[C@H](C(=O)O)[C@H](Cc1ccc(C2=CCNC2)c(F)c1)c1nnn[nH]1 [Example 69, (2S,3S)-4-(4-(2,5-dihydro-1H-pyrrol-3-yl)-3-fluorophenyl)-2-isopropyl-3-(1H-tetrazol-5-yl)butanoic acid]
[1]
  IMP1 SM5741 MITC95: 6.2 µM
[2]
  NDM1 EC30016 MITC95: 3.1 µM
[3]
  VIM1 KP599644 MITC95: 6.2 µM
[4]
  IC50: 770 nM
[5]
  IC50: 25 nM
[6]
  IC50: 1.3 nM

## CC(C)[C@H](C(=O)O)[C@H](Cc1ccccc1C1=CCNC1)c1nnn[nH]1 [Example 70, (2S,3S)-4-(2-(2,5-dihydro-1H-pyrrol-3-yl)phenyl)-2-isopropyl-3-(1H-tetrazol-5-yl)butanoic acid]
[1]
  IMP1 SM5741 MITC95: >200 µM
[2]
  NDM1 EC30016 MITC95: 12.5 µM
[3]
  VIM1 KP599644 MITC95: 50 µM
[4]
  IC50: > 20000 nM
[5]
  IC50: 180 nM
[6]
  IC50: 240 nM

## Nc1ccc(-c2ccc(C[C@H](c3nnn[nH]3)[C@@H](C(=O)O)C3CCCC3)cc2)cn1 [Example 72, (2S,3S)-4-(4-(6-aminopyridin-3-yl)phenyl)-2-cyclopentyl-3-(1H-tetrazol-5-yl)butanoic acid]
[1]
  IMP1 SM5741 MITC95: 0.39 µM
[2]
  NDM1 EC30016 MITC95: 6.2 µM
[3]
  VIM1 KP599644 MITC95: 12.5 µM
[4]
  IC50: 19 nM
[5]
  IC50: 5.6 nM
[6]
  IC50: 3.8 nM

## CC(C)[C@H](C(=O)O)[C@H](Cc1ccc(-c2ccc(N)nc2)cc1)c1nnn[nH]1 [Example 73, (2S,3S)-4-(4-(6-aminopyridin-3-yl)phenyl)-2-isopropyl-3-(1H-tetrazol-5-yl)butanoic acid]
[1]
  IMP1 SM5741 MITC95: 1.2 µM
[2]
  NDM1 EC30016 MITC95: 18.8 µM
[3]
  VIM1 KP599644 MITC95: 37.5 µM
[4]
  IC50: 40 nM
[5]
  IC50: 4.4 nM
[6]
  IC50: 7.1 nM

## CC(C)[C@H](C(=O)O)[C@H](Cc1ccc(-c2ccc(CN)cc2)cc1)c1nnn[nH]1 [Example 74, (2S,3S)-4-(4′-(aminomethyl)-[1,1′-biphenyl]-4-yl)-2-isopropyl-3-(1H-tetrazol-5-yl)butanoic acid]
[1]
  IMP1 SM5741 MITC95: 1.6 µM
[2]
  NDM1 EC30016 MITC95: 3.1 µM
[3]
  VIM1 KP599644 MITC95: 12.5 µM
[4]
  IC50: 110 nM
[5]
  IC50: 34 nM
[6]
  IC50: 18 nM

## NCc1ccc(-c2ccc(C[C@H](c3nnn[nH]3)[C@@H](C(=O)O)C3CCCC3)cc2)cc1 [Example 75, (2S,3S)-4-(4′-(aminomethyl)-[1,1′-biphenyl]-4-yl)-2-cyclopentyl-3-(1H-tetrazol-5-yl)butanoic acid]
[1]
  IMP1 SM5741 MITC95: 0.78 µM
[2]
  NDM1 EC30016 MITC95: 3.1 µM
[3]
  VIM1 KP599644 MITC95: 9.4 µM
[4]
  IC50: 36 nM
[5]
  IC50: 25 nM
[6]
  IC50: 4.3 nM

## CC(C)[C@H](C(=O)O)[C@H](Cc1ccc(-c2ccc3c(c2)CNC3)nc1)c1nnn[nH]1 [Example 76, (2S,3S)-4-(6-(isoindolin-5-yl)pyridin-3-yl)-2-isopropyl-3-(1H-tetrazol-5-yl)butanoic acid]
[1]
  IMP1 SM5741 MITC95: 37.5 µM
[2]
  NDM1 EC30016 MITC95: 9.4 µM
[3]
  VIM1 KP599644 MITC95: 18.8 µM
[4]
  IC50: 2600 nM
[5]
  IC50: 120 nM
[6]
  IC50: 18 nM

## CC(C)[C@H](C(=O)O)[C@H](Cc1ccc(-c2cnc(NCCO)nc2)cc1)c1nnn[nH]1 [Example 77, (2S,3S)-4-(4-(2-((2-hydroxyethyl)amino)pyrimidin-5-yl)phenyl)-2-isopropyl-3-(1H-tetrazol-5-yl)butanoic acid]
[1]
  IMP1 SM5741 MITC95: 4.7 µM
[2]
  NDM1 EC30016 MITC95: 6.2 µM
[3]
  VIM1 KP599644 MITC95: 50 µM
[4]
  IC50: 99 nM
[5]
  IC50: 6.1 nM
[6]
  IC50: 5.7 nM

## CC(C)[C@H](C(=O)O)[C@H](Cc1ccc(C2CCNC2)cc1)c1nnn[nH]1 (stereo partly drawn) [Example 78, (2S,3S)-2-isopropyl-4-(4-(pyrrolidin-3-yl)phenyl)-3-(1H-tetrazol-5-yl)butanoic acid]
[1]
  IMP1 SM5741 MITC95: 6.2 µM
[2]
  NDM1 EC30016 MITC95: 3.1 µM
[3]
  VIM1 KP599644 MITC95: 6.2 µM
[4]
  IC50: 460 nM
[5]
  IC50: 23 nM
[6]
  IC50: 4.5 nM
